Test results from US7288541B2, “Propylcarbamate derivatives as inhibitors of serine and cysteine proteases” (SmithKline Beecham Corporation, priority 2001, dated 2007).
Like-named read-outs stand apart in the source and are kept apart here.

Columns and labels:
Format in all cases: biochemical
human cathepsin L = target: T1, human cathepsin L (Homo sapiens, UniProt P07711); test: Cathepsin L inhibition, fluorogenic substrate Cbz-Phe-Arg-AMC, progress curve method; details: Table 2, Inhibition of Cathepsins (Ki in nM); enzyme from human liver tissue, 5 μM substrate, pH 5.5; read-out: hCat L IC50
T1 construct: enzyme prepared from human liver tissue; from tissue; host or cells: human liver
Description: (§1) All assays for cathepsin K were carried out with human and rat recombinant enzyme. Assays for cathepsins S & V were also carried out with human recombinant enzyme. Assays for human cathepsins B, H, and L were carried out with enzyme prepared from human liver tissue. Standard assay conditions for the determination of kinetic constants used a fluorogenic peptide substrate, typically (5S,8S)-13-amino-5-benzyl-13-imino-3-methylene-N-(4-methyl-2-oxo-2H-chromen-7-yl)-6-oxo-1-phenyl-2-oxa-4,7,12-triazatridecane-8-carboxamide (Cbz-Phe-Arg-AMC), and were determined in 100 mM sodium acetate at pH 5.5 containing 10 mM dithiothreitol and 120 mM sodium chloride. […]
(§2) All assays contained 10% dimethyl sulfoxide. […] Product fluorescence (excitation at 360 nm; emission at 440 nm, (except cathepsin H which used excitation at 340 nm; emission at 420 nm)) was monitored with a PerSeptive Biosystems Cytofluor II fluorescence plate reader. […]
(§3) Potential inhibitors were evaluated using the progress curve method. […] For those compounds whose progress curves were linear, the enzymatic activity (RATE) was plotted against the concentration of test compound, including inhibitor concentration of zero ([I]=0), and the IC50 determined from a fit of equation 1 to the data, RATE=Vmax/(1+([I]/IC50)) (1) where Vmax is the best fit estimate of the maximal enzymatic activity. […]

human cathepsin V = human cathepsin V (Homo sapiens, UniProt O60911); test: Cathepsin V inhibition, fluorogenic substrate Cbz-Phe-Arg-AMC, progress curve method; details: Table 2, Inhibition of Cathepsins (Ki in nM); recombinant human enzyme, 2 μM substrate, pH 5.5; read-out: hCat V IC50
Description: as §1, §2, §3

human cathepsin K = target: T2, human cathepsin K (Homo sapiens, UniProt P43235); test: Cathepsin K inhibition, fluorogenic substrate Cbz-Phe-Arg-AMC, progress curve method; details: recombinant human enzyme, 10 μM substrate, read-out: hCat K IC50
T2 construct: The proform of cathepsin K was converted to mature cathepsin K by brief exposure to pH 4; made in house; host or cells: baculovirus; Trichoplusia ni High Five cells (virus raised in Sf-9)
T2 sequence (P43235 115-329): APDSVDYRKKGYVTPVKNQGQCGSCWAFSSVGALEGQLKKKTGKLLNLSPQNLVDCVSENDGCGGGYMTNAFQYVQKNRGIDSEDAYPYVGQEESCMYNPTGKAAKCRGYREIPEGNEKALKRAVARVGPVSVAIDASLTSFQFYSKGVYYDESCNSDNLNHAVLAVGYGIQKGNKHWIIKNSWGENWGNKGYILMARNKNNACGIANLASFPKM
Description: All assays for cathepsin K were carried out with human and rat recombinant enzyme. Assays for cathepsins S & V were also carried out with human recombinant enzyme. Assays for human cathepsins B, H, and L were carried out with enzyme prepared from human liver tissue. […] A stock substrate solution of Cbz-Phe-Arg-AMC was prepared at a concentration of 50 mM in dimethyl sulfoxide. This substrate was diluted into the assay for a final substrate concentration of 10 μM in the rat cathepsin K, human cathepsin K, and human cathepsin B assays; a final substrate concentration of 5 μM in the human cathepsin L assay; and a final substrate concentration of 2 μM in the human cathepsin V assay.
All assays contained 10% dimethyl sulfoxide. […] All assays were conducted at 30° C. Product fluorescence (excitation at 360 nm; emission at 440 nm, (except cathepsin H which used excitation at 340 nm; emission at 420 nm)) was monitored with a PerSeptive Biosystems Cytofluor II fluorescence plate reader. Product progress curves were generated over 2.3 h monitoring the formation of 7-amino-4-methylcoumarin product (or β-naphthalamide for cathepsin H).
Human and Rat Cathepsin K:
The cells continued to grow for 72 h post-infection, before the virus was harvested by centrifugation at 1400×g for 30 min.
One and one-half liters of Trichoplusia ni (T. ni) High Five (TM) cells [JRH Biosciences, Woodland, Calif. […] The cells were grown for 24 h at 28° C., 50 RPM, and 50% dissolved oxygen. […] Media were separated from cells at a rate of 1 L/min using the Centritech 100 (TM) continuous-flow centrifuge (DuPont) operating at 200×g.
Protein Purification: Media (human and rat) were filtered through a Whatman 3 filter, and then loaded onto a 25 mL Poros HS II (26 mm×47 mm) cation exchange column equilibrated in 25 mM sodium acetate at pH 5.5 (equilibration buffer). The column was washed until the absorbance reached the baseline value, and then the protein was eluted with a linear gradient from 0–2 M sodium chloride in the equilibration buffer. Column fractions were analyzed by SDS-PAGE, N-terminal sequencing, and mass spectrometry. Fractions containing the proform of cathepsin K were pooled and frozen at −80° C. The proform was concentrated in an Amicon Centriprep 10 and fractionated with a Superdex 75 column (26 mm×600 mm, Pharmacia) equilibrated in 400 mM sodium chloride, 25 mM sodium acetate at pH 5.5.
Cathepsin K Activation: The proform of cathepsin K was converted to mature cathepsin K by brief exposure to pH 4 in the presence of 5 mM L-cysteine. Typically, 5 mM L-cysteine was added to 10 mL of approximately 1 mg/mL procathepsin K. One mL of this solution was diluted ten-fold into 450 mM sodium acetate at pH 4.0 containing 5 mM L-cysteine. This solution was reacted at 23° C. for 2 min before neutralization with 2 mL 1.8 M sodium acetate at pH 6.0. The neutralized sample was added to the remaining 9 mL of procathepsin K. The mixture was incubated at 4° C. for 2–3 days. The activated cathepsin K was chromatographed on a Poros HS II column as described above.
Potential inhibitors were evaluated using the progress curve method. Assays were carried out in the presence of variable concentrations of test compound. Reactions were initiated by addition of buffered solutions of inhibitor and substrate to enzyme. Data analysis was conducted according to one of two procedures depending on the appearance of the progress curves in the presence of inhibitors. […] Ki values were calculated from IC50 values using equation 2 assuming a competitive model.

human cathepsin B = target: T3, human cathepsin B (Homo sapiens, UniProt P07858); test: Cathepsin B inhibition, fluorogenic substrate Cbz-Phe-Arg-AMC, progress curve method; details: Table 2, Inhibition of Cathepsins (Ki in nM); enzyme from human liver tissue, 10 μM substrate, pH 5.5; read-out: hCat B IC50
T3 construct: enzyme prepared from human liver tissue; from tissue; host or cells: human liver
Description: as §1, §2, §3

human cathepsin S = human cathepsin S (Homo sapiens, UniProt P25774); test: Cathepsin S inhibition, fluorogenic substrate Cbz-Val-Val-Arg-AMC, progress curve method; details: Table 2, Inhibition of Cathepsins (Ki in nM); recombinant human enzyme, 10 μM substrate, pH 5.5; read-out: hCat S IC50
Description: as §1, §2, §3

[1] = Table 1, Inhibition of Cathepsin K (Ki in nM), pH 5.5, 30° C.
[2] = Table 2, Inhibition of Cathepsins (Ki in nM), pH 5.5

T1 sequence (P07711 114-288 limits assumed): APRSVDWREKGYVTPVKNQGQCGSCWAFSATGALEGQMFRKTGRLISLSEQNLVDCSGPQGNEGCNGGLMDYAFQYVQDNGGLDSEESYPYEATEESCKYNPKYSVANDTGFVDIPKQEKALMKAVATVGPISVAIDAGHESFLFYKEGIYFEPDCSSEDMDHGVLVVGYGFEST
T1 sequence (P07711 292-333 limits assumed): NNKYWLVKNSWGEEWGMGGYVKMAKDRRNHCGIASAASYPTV
Chain of human cathepsin S (P25774 115-331): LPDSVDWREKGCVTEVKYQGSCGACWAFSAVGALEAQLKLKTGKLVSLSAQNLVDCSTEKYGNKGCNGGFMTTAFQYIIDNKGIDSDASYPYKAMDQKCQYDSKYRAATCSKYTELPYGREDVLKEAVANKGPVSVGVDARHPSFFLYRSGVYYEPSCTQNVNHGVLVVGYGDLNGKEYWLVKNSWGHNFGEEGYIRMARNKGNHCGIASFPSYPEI
Chain of human cathepsin V (O60911 114-334): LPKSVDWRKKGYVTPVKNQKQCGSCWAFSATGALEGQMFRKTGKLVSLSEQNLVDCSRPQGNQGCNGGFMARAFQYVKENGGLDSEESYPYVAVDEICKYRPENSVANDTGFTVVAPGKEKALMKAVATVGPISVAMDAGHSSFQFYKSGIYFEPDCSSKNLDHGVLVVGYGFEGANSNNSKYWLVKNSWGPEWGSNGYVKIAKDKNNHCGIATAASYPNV

| IC50 (human cathepsin L) [nM] | IC50 (human cathepsin V) [nM] | IC50 (human cathepsin K; [1]) [nM] | IC50 (human cathepsin K; [2]) [nM] | IC50 (human cathepsin B) [nM] | IC50 (human cathepsin S) [nM] | SMILES |
| --- | --- | --- | --- | --- | --- | --- |
| 10 to 100 | < 10 | < 10 | < 10 | 10 to 100 | < 10 | C[C@H](NC(=O)O[C@H](Cn1cnc2cc(Cl)c(Cl)cc21)C(C)(C)C)C(=O)CNS(=O)(=O)c1ccccn1 [Example 16, (1S)-1-[(5,6-dichloro-1H-benzimidazol-1-yl)methyl]-2,2-dimethylpropyl (1S)-1-methyl-2-oxo-3-[(2-pyridinylsulfonyl)amino]propylcarbamate] |
| 1000 to 10000 | 100 to 1000 | 100 to 1000 | 100 to 1000 | 1000 to 10000 | 10 to 100 | CCCC[C@H](NC(=O)O[C@@H]1CN(c2nc3ccccc3s2)CC1(C)C)C(=O)CNS(=O)(=O)c1ccccn1 [Example 6, (3S)-1-(1,3-benzothiazol-2-yl)-4,4-dimethylpyrrolidinyl (1S)-1-{[(2-pyridinylsulfonyl)amino]acetyl}pentylcarbamate] |
